Assay results: EPA's ToxRefDB 2

Assays:
rabbit [1] = details: Prenatal developmental toxicity study, new zealand white, Oral, Gavage/Intubation, dose end: 19 GD
rat [2] = details: Combined chronic toxicity/carcinogenicity, other, Oral, Feed, dose end: 24 month, group: systemic
mouse [3] = details: Carcinogenicity; cd1; Oral; Feed; dose end: 18 month; group: systemic; systemic / pathology microscopic / liver / vacuolization + systemic / pathology microscopic / seminal vesicle / distended + systemic / …
rat [4] = details: Prenatal developmental toxicity study, other, Oral, Gavage/Intubation, dose end: 16 GD
rat [5] = details: Combined chronic toxicity/carcinogenicity; sprague dawley; Oral; Feed; dose end: 115 week; group: systemic; systemic / in life observation / body weight / body weight
rabbit [6] = details: Prenatal developmental toxicity study, new zealand white, Oral, Capsule, dose end: 18 GD
dog [7] = details: Chronic toxicity, beagle, Oral, Feed, dose end: 12 month, group: systemic
mouse [8] = details: Combined chronic toxicity/carcinogenicity, cd1, Oral, Feed, dose end: 89 week, group: systemic
rat [9] = details: Multigenerational reproductive toxicity study, sprague dawley, Oral, Feed, dose end: 2 generation
rat [10] = details: Subchronic oral toxicity in rodents, other, Gavage/Intubation, dose end: 92 day, group: systemic, systemic / in life observation / clinical signs / respiration (rales) + systemic / in life observation / mortality / mortality + systemic / …
rabbit [11] = details: Sub-acute dermal toxicity, new zealand white, Topical, dose end: 21 day, group: systemic, systemic / in life observation / clinical signs / erythema + systemic / pathology gross / skin / discolored + systemic / pathology gross / …
dog [12] = details: Subchronic oral toxicity in nonrodent, beagle, Feed, dose end: 13 week, group: systemic
rat [13] = details: Sub-acute dermal toxicity, sprague dawley, Topical, dose end: 28 day, group: systemic
dog [14] = details: Chronic toxicity; beagle; Oral; Feed; dose end: 24 month; group: systemic; systemic / clinical chemistry / alanine aminotransferase (alt/sgpt) / alanine aminotransferase (alt/sgpt) + systemic / clinical chemistry / …
dog [15] = details: Chronic toxicity; beagle; Oral; Feed; dose end: 52 week; group: systemic; systemic / clinical chemistry / cholesterol / cholesterol
rat [16] = details: Multigenerational reproductive toxicity study, long evans, Oral, Gavage/Intubation, dose end: 1 generation
rat [17] = details: Prenatal developmental toxicity study, other, Oral, Gavage/Intubation, dose end: 16 GD; remark: listed apart in the source
hamster = details: Multigenerational reproductive toxicity study, golden syrian, Oral, Gavage/Intubation, dose end: 1 generation
[18] = group: developmental, developmental / developmental malformation / other / other
[19] = group: maternal, reproductive / reproductive performance / postimplantation loss / postimplantation loss + reproductive / reproductive performance / …
[20] = systemic / organ weight / brain / absolute + systemic / organ weight / brain / relative to body weight
[21] = group: developmental, developmental / developmental malformation / bone / short + developmental / developmental malformation / bone / supernumerary
[22] = group: developmental, developmental / developmental malformation / bone / short + developmental / developmental malformation / bone / supernumerary + …
[23] = group: maternal, systemic / in life observation / body weight / body weight gain + systemic / in life observation / food consumption / food consumption
[24] = group: maternal, systemic / in life observation / body weight / body weight gain + systemic / in life observation / food consumption / food consumption + …
[25] = group: developmental, developmental / developmental malformation / bone / irregular ossification
[26] = group: maternal, reproductive / reproductive performance / aborted / aborted + systemic / in life observation / clinical signs / ataxia
[27] = group: maternal, reproductive / reproductive performance / aborted / aborted + systemic / in life observation / clinical signs / ataxia + systemic / in life …
[28] = systemic / pathology microscopic / lung / [other] + systemic / in life observation / clinical signs / inappetence + systemic / in life …
[29] = systemic / in life observation / mortality / mortality
[30] = group: offspring, systemic / in life observation / body weight / offspring (pup) weight
[31] = group: offspring, systemic / organ weight / liver / relative to body weight
[32] = group: parental, systemic / organ weight / kidney / relative to body weight
[33] = systemic / in life observation / food consumption / food consumption + systemic / clinical chemistry / cholesterol / cholesterol + systemic…
[34] = systemic / pathology microscopic / epididymis / hypospermia + systemic / pathology microscopic / testes / degeneration
[35] = systemic / pathology microscopic / epididymis / hypospermia + systemic / pathology microscopic / testes / degeneration + systemic / …
[36] = group: parental, systemic / organ weight / epididymis / absolute + systemic / organ weight / testes / absolute + systemic / pathology gross / sperm measure…
[37] = group: parental, systemic / pathology gross / sperm measure / sperm count + systemic / pathology microscopic / testes / atrophy
[38] = group: reproductive, reproductive / reproductive performance / pregnancy / pregnancy + reproductive / reproductive performance / resorptions / resorptions + …
[39] = group: developmental, developmental / developmental malformation / bone / bipartite ossification + developmental / developmental malformation / bone / dumbbell …
[40] = group: maternal, systemic / organ weight / liver / absolute
[41] = group: parental, systemic / pathology gross / kidney / enlarged + systemic / pathology gross / liver / enlarged + systemic / pathology gross / sperm measure…

With `CCC(C)n1c(=O)[nH]c(C)c(Br)c1=O` (stereo not given) [Bromacil] the LEL (rabbit [1]; [18]) was 500 mg/kg/day, the LOAEL (rabbit [1]; [18]) was > 500 mg/kg/day and the NEL (rabbit [1]; [18]) was 300 mg/kg/day. For the same compound, the NOAEL (rabbit [1]; [18]) was ≥ 500 mg/kg/day, the LEL (rabbit [1]; [19]) was 300 mg/kg/day and the LOAEL (rabbit [1]; [19]) was 300 mg/kg/day. It also gave an NEL (rabbit [1]; [19]) of 100 mg/kg/day, an NOAEL (rabbit [1]; [19]) of 100 mg/kg/day and an LOAEL (rat [2]; systemic / in life observation / body weight / body weight gain) of 9.82 mg/kg/day. The NOAEL (rat [2]; systemic / in life observation / body weight / body weight gain + systemic / in life observation / body weight / body weight + systemic / …) was 1.96 mg/kg/day, the LEL (rat [2]; [20]) was 1.96 mg/kg/day and the NEL (rat [2]; [20]) was < 1.96 mg/kg/day. For the same compound, the LEL (mouse [3]) was 36 mg/kg/day, the LOAEL (mouse [3]) was 36 mg/kg/day and the NEL (mouse [3]) was < 36 mg/kg/day. The NOAEL (mouse [3]) was < 36 mg/kg/day, the LEL (rat [4]; [21]) was 200 mg/kg/day and the LOAEL (rat [4]; [21]) was 200 mg/kg/day. The NEL (rat [4]; [22]) was 75 mg/kg/day, the NOAEL (rat [4]; [22]) was 75 mg/kg/day and the LEL (rat [4]; [23]) was 75 mg/kg/day. For the same compound, the LOAEL (rat [4]; [23]) was 75 mg/kg/day, the NEL (rat [4]; [24]) was 20 mg/kg/day and the NOAEL (rat [4]; [24]) was 20 mg/kg/day.

`COc1c(Cl)ccc(Cl)c1C(=O)O` [Dicamba] was tested, and the LEL (rat [5]) was 125 mg/kg/day, the LOAEL (rat [5]) was > 125 mg/kg/day and the NEL (rat [5]) was 12.5 mg/kg/day. For the same compound, the NOAEL (rat [5]) was ≥ 125 mg/kg/day, the LEL (rabbit [6]; [25]) was 300 mg/kg/day and the LOAEL (rabbit [6]; [25]) was 300 mg/kg/day. The NEL (rabbit [6]; [25]) was 150 mg/kg/day, the NOAEL (rabbit [6]; [25]) was 150 mg/kg/day and the LEL (rabbit [6]; [26]) was 150 mg/kg/day. For the same compound, the LOAEL (rabbit [6]; [26]) was 150 mg/kg/day, the NEL (rabbit [6]; [27]) was 30 mg/kg/day and the NOAEL (rabbit [6]; [27]) was 30 mg/kg/day. For the same compound, the NEL (dog [7]; systemic / pathology microscopic / lung / [other]) was 2 mg/kg/day, the LEL (dog [7]; systemic / pathology microscopic / lung / [other] + systemic / in life observation / clinical signs / inappetence) was 11 mg/kg/day and the LOAEL (dog [7]; [28]) was > 52 mg/kg/day. The NOAEL (dog [7]; [28]) was ≥ 52 mg/kg/day, the LOAEL (mouse [8]; [29]) was 358 mg/kg/day and the NOAEL (mouse [8]; [29]) was 108 mg/kg/day. The LEL (mouse [8]; systemic / organ weight / kidney / nos) was 121 mg/kg/day, the NEL (mouse [8]; systemic / organ weight / kidney / nos + systemic / in life observation / body weight / body weight gain) was 18.8 mg/kg/day and the LOAEL (rat [9]; [30]) was 122 mg/kg/day. The NOAEL (rat [9]; group: offspring, systemic / in life observation / body weight / offspring (pup) weight + systemic / organ weight / liver / relative to body weight) was 40 mg/kg/day, the LEL (rat [9]; [31]) was 40 mg/kg/day and the NEL (rat [9]; [31]) was < 40 mg/kg/day. For the same compound, the LEL (rat [9]; [32]) was 40 mg/kg/day, the NEL (rat [9]; [32]) was < 40 mg/kg/day and the LOAEL (rat [9]; group: parental, systemic / organ weight / liver / relative to body weight) was 419 mg/kg/day. For the same compound, the NOAEL (rat [9]; group: parental, systemic / organ weight / liver / relative to body weight + systemic / in life observation / body weight / body weight + systemic / organ …) was 122 mg/kg/day.

In the case of `O=C(CBr)c1ccc(O)cc1` [2-Bromo-4-hydroxyacetophenone], the LEL (rat [10]) was 30 mg/kg/day, the LOAEL (rat [10]) was 30 mg/kg/day and the NEL (rat [10]) was 6 mg/kg/day. For the same compound, the NOAEL (rat [10]) was 6 mg/kg/day, the LEL (rabbit [11]) was 20 mg/kg/day and the LOAEL (rabbit [11]) was 20 mg/kg/day. For the same compound, the NEL (rabbit [11]) was < 20 mg/kg/day and the NOAEL (rabbit [11]) was < 20 mg/kg/day.

In the case of `COC(=O)Nc1nc2ccccc2[nH]1` [Carbendazim], the LOAEL (dog [12]; systemic / clinical chemistry / cholesterol / cholesterol + systemic / pathology microscopic / liver / [other]) was 35 mg/kg/day, the LEL (dog [12]; systemic / in life observation / food consumption / food consumption + systemic / clinical chemistry / cholesterol / cholesterol) was 11.3 mg/kg/day and the NEL (dog [12]; [33]) was 2.7 mg/kg/day. It also gave an NOAEL (dog [12]; [33]) of 11.3 mg/kg/day, an LEL (rat [13]; [34]) of 120 mg/kg/day and an LOAEL (rat [13]; [34]) of 120 mg/kg/day. For the same compound, the NEL (rat [13]; [35]) was 20 mg/kg/day, the NOAEL (rat [13]; [35]) was 20 mg/kg/day and the LEL (dog [14]) was 12.5 mg/kg/day. The LOAEL (dog [14]) was 12.5 mg/kg/day, the NEL (dog [14]) was 2.5 mg/kg/day and the NOAEL (dog [14]) was 2.5 mg/kg/day. It also gave an LEL (dog [15]) of 16.5 mg/kg/day, an LOAEL (dog [15]) of 16.5 mg/kg/day and an NEL (dog [15]) of 6.43 mg/kg/day. For the same compound, the NOAEL (dog [15]) was 6.43 mg/kg/day, the LOAEL (rat [16]; [36]) was > 400 mg/kg/day and the NOAEL (rat [16]; [36]) was ≥ 400 mg/kg/day. For the same compound, the LEL (rat [16]; [37]) was 50 mg/kg/day, the NEL (rat [16]; [37]) was < 50 mg/kg/day and the LEL (rat [16]; group: reproductive, reproductive / reproductive performance / pregnancy / pregnancy + reproductive / offspring survival early / litter viability other / litter …) was 200 mg/kg/day. The NEL (rat [16]; group: reproductive, reproductive / reproductive performance / pregnancy / pregnancy + reproductive / reproductive performance / resorptions / resorptions) was 100 mg/kg/day, the LOAEL (rat [16]; [38]) was > 400 mg/kg/day and the NOAEL (rat [16]; [38]) was ≥ 400 mg/kg/day. It also gave an LEL (rat [17]; [39]) of 20 mg/kg/day, an LOAEL (rat [17]; [39]) of 20 mg/kg/day and an NEL (rat [17]; [39]) of 10 mg/kg/day. For the same compound, the NOAEL (rat [17]; [39]) was 10 mg/kg/day, the LOAEL (rat [17]; [40]) was 90 mg/kg/day and the NEL (rat [17]; [40]) was 20 mg/kg/day. The NOAEL (rat [17]; [40]) was 20 mg/kg/day, the LEL (rat [17]; group: maternal, systemic / organ weight / liver / absolute + reproductive / offspring survival early / live fetuses / live fetuses + reproductive / …) was 90 mg/kg/day and the LEL (hamster; [30]) was 400 mg/kg/day. For the same compound, the LOAEL (hamster; [30]) was > 400 mg/kg/day, the NEL (hamster; [30]) was < 400 mg/kg/day and the NOAEL (hamster; [30]) was ≥ 400 mg/kg/day. The LEL (hamster; [41]) was 400 mg/kg/day, the LOAEL (hamster; [41]) was > 400 mg/kg/day and the NEL (hamster; [41]) was < 400 mg/kg/day. For the same compound, the NOAEL (hamster; [41]) was ≥ 400 mg/kg/day.
